Values joined by “and” are separate entries in the source; they are usually repeats but may differ in a detail not shown here. Equal values may be shown once. “Also recorded” adds a separate entry of the source.
Assays:
MB49 cells [1] = tested on: MB49 cells
MB49 cells [2] = settings: mouse, in vivo
[3] = tested on: HSCs (LKS+ cells) and immune cells in BM and bladder; settings: mouse, in vivo
MB49 cells [4] = settings: mouse, in vivo; remark: listed apart in the source
B16-F10 cells = settings: mouse, in vivo
bladder cancer = settings: human, in vivo; cited from earlier work
[5] = mouse, in vivo

CC(=O)N[C@@H](CS)C(=O)O [NAC, N-Acetyl Cysteine]
effect of ROS scavenger on cytotoxic activity of trained neutrophils (MB49 cells [1]): abolished the cytotoxic activity

β-Glucan
tumor growth (MB49 cells [2]): developed tumors | frequency and absolute number of neutrophils in bladder [3]: significantly increased | frequency of lymphocytes / adaptive immune cells (CD4+ and CD8+ T cells) in bladder [3]: remained unchanged | frequency and total cell number of neutrophils in BM ([3]; ip): increased | increase in survival (MB49 cells [4]): 50% and 40% | survival (MB49 cells [4]): 40% | survival after neutrophil depletion (MB49 cells [4]): 10% | tumor growth / tumoral volume (histopathology, MRI, tumoral weight) (MB49 cells [4]): suppressing tumoral growth; also recorded: reduced tumor growth; also recorded: significant reduction in tumor volume | enhanced survival compared to PBS-control group (MB49 cells [4]; ip): 45%

Bacillus Calmette-Guérin [BCG]
tumor growth (MB49 cells [2]): significantly reduced tumor growth | BM-LKS+ population (B16-F10 cells): significant expansion | LKS+ population in BM, frequency and absolute number [3]: significant expansion | frequency and absolute number of monocytes in BM [3]: increased | frequency and absolute number of neutrophils in BM [3]: increased | frequency and absolute number of neutrophils in bladder [3]: increased | frequency and absolute numbers of dendritic cells in BM [3]: increased | frequency and absolute numbers of dendritic cells in bladder [3]: increased | frequency and absolute numbers of monocytes in bladder [3]: increased | frequency and total cell numbers of NK cells in bladder [3]: increased | frequency and total cell numbers of macrophages in bladder [3]: increased | frequency of lymphocytes / adaptive immune cells (CD4+ and CD8+ T cells) in bladder [3]: increased | proportions of long-term HSCs (LT-HSCs) in BM [3]: reduction | proportions of multipotent progenitors (MPPs) in BM [3]: increases | proportions of short-term HSCs (ST-HSCs) in BM [3]: increases | increase in survival (MB49 cells [4]): 50% | survival (MB49 cells [4]): 50-70% and 50% | tumor growth / tumoral volume (histopathology, MRI, tumoral weight) (MB49 cells [4]): substantial reduction in tumoral volume; also recorded: reduced tumor growth; also recorded: significant tumor reduction | enhanced survival (MB49 cells [4]; iv): 40-50% | efficacy of BCG treatment in bladder cancer (bladder cancer): 30-50% | intolerance due to adverse effects (bladder cancer): about 20% | patients experiencing relapse (bladder cancer): up to 40% | patients unresponsive to BCG immunotherapy (bladder cancer): up to 50% | BCG dissemination to organs [5]: reached the spleen, draining lymph nodes, and BM | BCG elimination in urine [5]: eliminated in the urine

Reference: patent publication US20250352629A1, “ADJUVANT FOR BACILLUS CALMETTE-GUERIN CANCER IMMUNOTHERAPY” (The Royal Institution for the Advancement of …, priority 2024, published 2025)
